Reference: ChEMBL document CHEMBL1151757, “Synthesis, radiosynthesis, and biological evaluation of fluorine-18-labeled 2beta-carbo(fluoroalkoxy)-3beta-(3'-((Z)-2-haloethenyl)phenyl)nortropanes: candidate radioligands for in vivo imaging of the serotonin transporter with positron emission tomography” (J Med Chem, 2008)

test system: Medulla; assay: Drug uptake in anesthetized cynomolgus monkey brain medulla after 15.5 mins postinjection; format: ADME, organism-based, Macaca fascicularis; settings: in vivo

| SMILES | Drug uptake |
| --- | --- |
| O=C(OCC[18F])C1C2CCC(CC1c1cccc(/C=C\Br)c1)N2 (stereo not given) | 4.15 |

test system: Medulla; assay: Drug uptake in anesthetized cynomolgus monkey brain medulla after 22.5 mins postinjection; format: ADME, organism-based, Macaca fascicularis; settings: in vivo, 0.375 h

| SMILES | Drug uptake |
| --- | --- |
| O=C(OCC[18F])C1C2CCC(CC1c1cccc(/C=C\Br)c1)N2 (stereo not given) | 4.7 |

test system: Medulla; assay: Drug uptake in anesthetized cynomolgus monkey brain medulla after 45 mins postinjection; format: ADME, organism-based, Macaca fascicularis; settings: in vivo, 0.75 h

| SMILES | Drug uptake |
| --- | --- |
| O=C(OCC[18F])C1C2CCC(CC1c1cccc(/C=C\Br)c1)N2 (stereo not given) | 4.87 |

test system: not listed separately; assay: Ratio of drug uptake in putamen to cerebellum in anesthetized cynomolgus monkey after 6.5 mins postinjection; format: ADME, organism-based, Macaca fascicularis; settings: in vivo

| SMILES | Ratio |
| --- | --- |
| O=C(OCC[18F])C1C2CCC(CC1c1cccc(/C=C\Br)c1)N2 (stereo not given) | 1.1 |

test system: not listed separately; assay: Ratio of drug uptake in putamen to cerebellum in anesthetized cynomolgus monkey after 45 mins postinjection; format: ADME, organism-based, Macaca fascicularis; settings: in vivo, 0.75 h

| SMILES | Ratio |
| --- | --- |
| O=C(OCC[18F])C1C2CCC(CC1c1cccc(/C=C\Br)c1)N2 (stereo not given) | 1.3 |

test system: not listed separately; assay: Octanol-water partition coefficient, log P at pH 7.4 by shake-flask method; format: physicochemical; settings: not given

| SMILES | logD |
| --- | --- |
| O=C(OCC[18F])C1C2CCC(CC1c1cccc(/C=C\Br)c1)N2 (stereo not given) | 1.4 |

test system: not listed separately; assay: Ratio of drug uptake in putamen to cerebellum in anesthetized cynomolgus monkey after 155 mins postinjection; format: ADME, organism-based, Macaca fascicularis; settings: in vivo

| SMILES | Ratio |
| --- | --- |
| O=C(OCC[18F])C1C2CCC(CC1c1cccc(/C=C\Br)c1)N2 (stereo not given) | 1.8 |

test system: Medulla; assay: Drug uptake in anesthetized cynomolgus monkey brain medulla after 225 mins postinjection; format: ADME, organism-based, Macaca fascicularis; settings: in vivo, 3.75 h

| SMILES | Drug uptake |
| --- | --- |
| O=C(OCC[18F])C1C2CCC(CC1c1cccc(/C=C\Br)c1)N2 (stereo not given) | 2.67 |

test system: Medulla; assay: Drug uptake in anesthetized cynomolgus monkey brain medulla after 235 mins postinjection; format: ADME, organism-based, Macaca fascicularis; settings: in vivo

| SMILES | Drug uptake |
| --- | --- |
| O=C(OCC[18F])C1C2CCC(CC1c1cccc(/C=C\Br)c1)N2 (stereo not given) | 2.72 |

test system: not listed separately; assay: Drug uptake in anesthetized cynomolgus monkey brain cerebellum after 3.5 mins postinjection; format: ADME, organism-based, Macaca fascicularis; settings: in vivo

| SMILES | Drug uptake |
| --- | --- |
| O=C(OCC[18F])C1C2CCC(CC1c1cccc(/C=C\Br)c1)N2 (stereo not given) | 1.14 |

test system: not listed separately; assay: Drug uptake in anesthetized cynomolgus monkey brain cerebellum after 45 mins postinjection; format: ADME, organism-based, Macaca fascicularis; settings: in vivo, 0.75 h

| SMILES | Drug uptake |
| --- | --- |
| O=C(OCC[18F])C1C2CCC(CC1c1cccc(/C=C\Br)c1)N2 (stereo not given) | 3.76 |

test system: not listed separately; assay: Drug uptake in anesthetized cynomolgus monkey brain cerebellum after 75 mins postinjection; format: ADME, organism-based, Macaca fascicularis; settings: in vivo, 1.25 h

| SMILES | Drug uptake |
| --- | --- |
| O=C(OCC[18F])C1C2CCC(CC1c1cccc(/C=C\Br)c1)N2 (stereo not given) | 3.3 |

test system: not listed separately; assay: Drug uptake in anesthetized cynomolgus monkey brain cerebellum after 85 mins postinjection; format: ADME, organism-based, Macaca fascicularis; settings: in vivo

| SMILES | Drug uptake |
| --- | --- |
| O=C(OCC[18F])C1C2CCC(CC1c1cccc(/C=C\Br)c1)N2 (stereo not given) | 3.17 |

test system: Medulla; assay: Drug uptake in anesthetized cynomolgus monkey brain medulla after 115 mins postinjection; format: ADME, organism-based, Macaca fascicularis; settings: in vivo

| SMILES | Drug uptake |
| --- | --- |
| O=C(OCC[18F])C1C2CCC(CC1c1cccc(/C=C\Br)c1)N2 (stereo not given) | 4.28 |

test system: not listed separately; assay: Drug uptake in anesthetized cynomolgus monkey brain cerebellum after 165 mins postinjection; format: ADME, organism-based, Macaca fascicularis; settings: in vivo, 2.75 h

| SMILES | Drug uptake |
| --- | --- |
| O=C(OCC[18F])C1C2CCC(CC1c1cccc(/C=C\Br)c1)N2 (stereo not given) | 2.18 |

test system: not listed separately; assay: Ratio of drug uptake in putamen to cerebellum in anesthetized cynomolgus monkey after 215 mins postinjection; format: ADME, organism-based, Macaca fascicularis; settings: in vivo

| SMILES | Ratio |
| --- | --- |
| O=C(OCC[18F])C1C2CCC(CC1c1cccc(/C=C\Br)c1)N2 (stereo not given) | 1.8 |

test system: Caudate; assay: Drug uptake in anesthetized cynomolgus monkey brain caudate after 4.5 mins postinjection; format: ADME, organism-based, Macaca fascicularis, Caudate nucleus; settings: in vivo, 0.075 h

| SMILES | Drug uptake |
| --- | --- |
| O=C(OCC[18F])C1C2CCC(CC1c1cccc(/C=C\Br)c1)N2 (stereo not given) | 1.12 |

test system: Caudate; assay: Drug uptake in anesthetized cynomolgus monkey brain caudate after 22.5 mins postinjection; format: ADME, organism-based, Macaca fascicularis, Caudate nucleus; settings: in vivo, 0.375 h

| SMILES | Drug uptake |
| --- | --- |
| O=C(OCC[18F])C1C2CCC(CC1c1cccc(/C=C\Br)c1)N2 (stereo not given) | 3.22 |

test system: Caudate; assay: Drug uptake in anesthetized cynomolgus monkey brain caudate after 27.5 mins postinjection; format: ADME, organism-based, Macaca fascicularis, Caudate nucleus; settings: in vivo

| SMILES | Drug uptake |
| --- | --- |
| O=C(OCC[18F])C1C2CCC(CC1c1cccc(/C=C\Br)c1)N2 (stereo not given) | 3.3 |

test system: Caudate; assay: Drug uptake in anesthetized cynomolgus monkey brain caudate after 115 mins postinjection; format: ADME, organism-based, Macaca fascicularis, Caudate nucleus; settings: in vivo

| SMILES | Drug uptake |
| --- | --- |
| O=C(OCC[18F])C1C2CCC(CC1c1cccc(/C=C\Br)c1)N2 (stereo not given) | 4.06 |

test system: Caudate; assay: Drug uptake in anesthetized cynomolgus monkey brain caudate after 215 mins postinjection; format: ADME, organism-based, Macaca fascicularis, Caudate nucleus; settings: in vivo

| SMILES | Drug uptake |
| --- | --- |
| O=C(OCC[18F])C1C2CCC(CC1c1cccc(/C=C\Br)c1)N2 (stereo not given) | 2.85 |

test system: not listed separately; assay: Ratio of drug uptake in occipital lobe to cerebellum in anesthetized cynomolgus monkey after 0.5 mins postinjection; format: ADME, organism-based, Macaca fascicularis; settings: in vivo

| SMILES | Ratio |
| --- | --- |
| O=C(OCC[18F])C1C2CCC(CC1c1cccc(/C=C\Br)c1)N2 (stereo not given) | 1.6 |

test system: Thalamus; assay: Drug uptake in anesthetized cynomolgus monkey brain thalamus after 2.5 mins postinjection; format: ADME, organism-based, Macaca fascicularis; design: unit not given here; settings: in vivo

| SMILES | Drug uptake |
| --- | --- |
| O=C(OCC[18F])C1C2CCC(CC1c1cccc(/C=C\Br)c1)N2 (stereo not given) | 0.29 |

test system: Putamen; assay: Drug uptake in anesthetized cynomolgus monkey brain putamen after 12.5 mins postinjection; format: ADME, organism-based, Macaca fascicularis; design: unit not given here; settings: in vivo

| SMILES | Drug uptake |
| --- | --- |
| O=C(OCC[18F])C1C2CCC(CC1c1cccc(/C=C\Br)c1)N2 (stereo not given) | 3.69 |

test system: Putamen; assay: Drug uptake in anesthetized cynomolgus monkey brain putamen after 18.5 mins postinjection; format: ADME, organism-based, Macaca fascicularis; design: unit not given here; settings: in vivo

| SMILES | Drug uptake |
| --- | --- |
| O=C(OCC[18F])C1C2CCC(CC1c1cccc(/C=C\Br)c1)N2 (stereo not given) | 4.37 |

test system: Putamen; assay: Drug uptake in anesthetized cynomolgus monkey brain putamen after 95 mins postinjection; format: ADME, organism-based, Macaca fascicularis; design: unit not given here; settings: in vivo

| SMILES | Drug uptake |
| --- | --- |
| O=C(OCC[18F])C1C2CCC(CC1c1cccc(/C=C\Br)c1)N2 (stereo not given) | 4.83 |

test system: Thalamus; assay: Drug uptake in anesthetized cynomolgus monkey brain thalamus after 75 mins postinjection; format: ADME, organism-based, Macaca fascicularis; design: unit not given here; settings: in vivo, 1.25 h

| SMILES | Drug uptake |
| --- | --- |
| O=C(OCC[18F])C1C2CCC(CC1c1cccc(/C=C\Br)c1)N2 (stereo not given) | 4.29 |

test system: Thalamus; assay: Drug uptake in anesthetized cynomolgus monkey brain thalamus after 85 mins postinjection; format: ADME, organism-based, Macaca fascicularis; design: unit not given here; settings: in vivo

| SMILES | Drug uptake |
| --- | --- |
| O=C(OCC[18F])C1C2CCC(CC1c1cccc(/C=C\Br)c1)N2 (stereo not given) | 4.41 |

test system: Thalamus; assay: Drug uptake in anesthetized cynomolgus monkey brain thalamus after 155 mins postinjection; format: ADME, organism-based, Macaca fascicularis; design: unit not given here; settings: in vivo

| SMILES | Drug uptake |
| --- | --- |
| O=C(OCC[18F])C1C2CCC(CC1c1cccc(/C=C\Br)c1)N2 (stereo not given) | 3.64 |

test system: Midbrain; assay: Drug uptake in anesthetized cynomolgus monkey brain midbrain after 6.5 mins postinjection; format: ADME, organism-based, Macaca fascicularis; design: unit not given here; settings: in vivo

| SMILES | Drug uptake |
| --- | --- |
| O=C(OCC[18F])C1C2CCC(CC1c1cccc(/C=C\Br)c1)N2 (stereo not given) | 2.99 |

test system: Midbrain; assay: Drug uptake in anesthetized cynomolgus monkey brain midbrain after 12.5 mins postinjection; format: ADME, organism-based, Macaca fascicularis; design: unit not given here; settings: in vivo

| SMILES | Drug uptake |
| --- | --- |
| O=C(OCC[18F])C1C2CCC(CC1c1cccc(/C=C\Br)c1)N2 (stereo not given) | 3.83 |

test system: Midbrain; assay: Drug uptake in anesthetized cynomolgus monkey brain midbrain after 18.5 mins postinjection; format: ADME, organism-based, Macaca fascicularis; design: unit not given here; settings: in vivo

| SMILES | Drug uptake |
| --- | --- |
| O=C(OCC[18F])C1C2CCC(CC1c1cccc(/C=C\Br)c1)N2 (stereo not given) | 4.16 |

test system: Midbrain; assay: Drug uptake in anesthetized cynomolgus monkey brain midbrain after 35 mins postinjection; format: ADME, organism-based, Macaca fascicularis; design: unit not given here; settings: in vivo

| SMILES | Drug uptake |
| --- | --- |
| O=C(OCC[18F])C1C2CCC(CC1c1cccc(/C=C\Br)c1)N2 (stereo not given) | 4.68 |

test system: Midbrain; assay: Drug uptake in anesthetized cynomolgus monkey brain midbrain after 45 mins postinjection; format: ADME, organism-based, Macaca fascicularis; design: unit not given here; settings: in vivo, 0.75 h

| SMILES | Drug uptake |
| --- | --- |
| O=C(OCC[18F])C1C2CCC(CC1c1cccc(/C=C\Br)c1)N2 (stereo not given) | 4.82 |

test system: Midbrain; assay: Drug uptake in anesthetized cynomolgus monkey brain midbrain after 85 mins postinjection; format: ADME, organism-based, Macaca fascicularis; design: unit not given here; settings: in vivo

| SMILES | Drug uptake |
| --- | --- |
| O=C(OCC[18F])C1C2CCC(CC1c1cccc(/C=C\Br)c1)N2 (stereo not given) | 4.9 |
